Earlier results in patent publication US20070202158A1, “Methods Of Administering Water-Soluble Prodrugs Of Propofol For Extended Sedation” (MGI GP, Inc., priority 2003, published 2007).

System: patients
Settings: anesthetic induction doses; cited from earlier work

CC(C)c1cccc(C(C)C)c1O [propofol, 2,6-diisopropylphenol]
patients with respiratory consequences, including reduction in tidal volume and apnea: up to 83%
